Reference: patent publication US20060040870A1, “Enhancement of apoptosis by caspase-9 inhibitors” (priority 2004, published 2006)
The star is where a group is joined. Cbz = O=C(OCc1ccccc1)*; CH2F = FC*

How the values were obtained:
leukemia/lymphoma cells = assay: Pro-apoptotic activity of caspase inhibitor sequences (Table 2); format: cell-based; parameters: key: “−” is no activity; ++++ is maximum activity
Text: Caspases are constitutively express in cells, and are usually in their pro-form. In response to an incident, such as irradiation or chemotherapy, the pro-form of the caspase is converted into the activated state. Certain compounds are known that can inhibit caspases. For example, the pan-caspase (PCi) VAD can block all caspases. […] For example, C2i inhibits caspase-2. This particular inhibitor is very dose dependent.

[1] = system: caspase-9 deficient BLIN-4L; assay: Apoptotic sensitivity of BLIN-4L made deficient in caspase-9 by siRNA, Annexin V; conditions: Annexin V+ events minus DMSO
BLIN-3 cells [2] = assay: Apoptosis by Annexin V staining and flow cytometry, BLIN-3; format: cell-based, human; conditions: BLIN-3 removed from adherent fibroblasts, 50 μM
Procedure: (§1) Flow cytometry. Quantitation of apoptotic events was conducted using a FACS Calibur (BD Immunocytometry Systems). All analyses were conducted on cells with lymphoid light scatter characteristics (i.e., low to medium forward scatter and low 90° side scatter).
(§2) iii. Annexin V. FITC-labeled Annexin V (BD Pharmingen, San Diego, Calif.) was used to detect external phosphatidylserine residues appearing on the external surface of early apoptotic cells (Koopman Blood. 1994;84:1415-1420). Cells were stained according to the manufacturers recommendations.
(§3) General experimental strategy. BLIN cell lines were removed from fibroblast monolayers, washed once and resuspended to 7.5×10^5/ml in X-VIVO 10. Two hundred μL of resuspended cells were added to 96-well flat-bottom microtiter plates (ISC Bioexpress, Kaysville, Vt.), followed by 0.5-1.0 μL of caspase inhibitors in DMSO. An identical volume of DMSO alone was added to separate wells as a vehicle control. This final DMSO concentration of 0.25-0.5% vol/vol had no adverse affect on any of the BLIN cell lines. At the indicated times the entire content of individual wells was harvested and stained in the fluorescent protocols described above.
The inventors carried out experiments to test the influence of specific amino acid substitutions on the proapoptotic activity Z-LEHD-fmk. Cells were cultured for 24 hours with various μM concentrations of Z-LEDH-fmk or single amino acid substitution of the parent peptide. All values in the following Table 3 represent the percentage of total Annexin V+ cells (PI+ and PI−) minus the percentage present in culture with DMSO alone (BLIN-2=3%; BLIN-3+7%; BLIN4L=5%).

CD33+ myeloid cells = assay: Annexin V staining of sorted cord blood-derived CD33+ myeloid cells removed from MS-5 stroma; format: cell-based, human; conditions: cultured 18 hours, DMSO control 27.9 ± 3.9, Time 0 <10
[3] = system: PARP (caspase-3/caspase-7 substrate); assay: Western blotting of PARP cleavage in BLIN-3 and BLIN-4L; format: cell-based, human; conditions: overnight incubation of BLIN-3 and BLIN-4L cells, 50 μM
Procedure: Western blotting. This method was conducted essentially as previously described.^20 The antibodies used were: rabbit anti-caspase-2 (catalog # sc-625, Santa Cruz Biotechnology Inc., Santa Cruz, Calif.), rabbit anti-caspase-3 (catalog # 9661, Upstate Cell Signaling Solutions, Waltham, Mass.), rabbit anti-caspase-6 (catalog # 9761, Upstate), rabbit anti-caspase-9 (catalog # 9502, Upstate), mouse anti-PARP (catalog # 556494, Pharmingen), and rabbit anti-Bid (catalog # AF846, R&D Systems). The antibodies to caspase-2 and caspase-9 were generated to the procaspase isoforms, whereas the antibodies to caspase-3 and caspase-6 were generated to cleavage products.
As expected, inclusion of 50 μM PCi had no effect. The degree of PARP cleavage in the presence of C9i (greater in BLIN-3 than BLIN-4L) correlated with the percentage of Annexin V+ cells (FIG. 3).

CD19+ B-cell precursors = assay: Annexin V staining of sorted cord blood-derived CD19+ B-cell precursors removed from MS-5 stroma; format: cell-based, human; conditions: cultured 18 hours, DMSO control 46.5 ± 1.4, Time 0 1.5
Procedure: Normal B-lineage cells. CD19+ B-lineage cells were derived from CD34+ human cord blood stem cells plated on the murine stromal cell line MS-5 (Itoh Exp Hematol. 1989;17:145-153). MS-5 stromal cells were kindly provided by Dr. Paul Kincade (University of Oklahoma Medical Research Foundation), following permission from Professor K. John Mori (Niigata University, Japan). FACS-purified CD34+/CD38+/lineage—cord blood hematopoietic stem cells were plated onto confluent, non-irradiated MS-5 stromal cells in 96-well flat-bottom plates (200 cells/well) containing Minimal Essential Medium supplemented with 10% FBS. Stem cell factor and G-CSF were added at 10 ng/ml (twice weekly) to enhance the emergence of CD19+ B-lineage cells (Nishihara Eur J Immunol. 1998;28:855-864; Ohkawara Leukemia. 1998;12:764-771). […] Wells were then pooled, stained with PE-conjugated anti-CD 19 + propidium iodide (PI), and sorted on a FACSVantage (BD Immunocytometry Systems, San Jose, Calif.). Cord blood CD34+/CD38+/lineage—cells were provided by Valerie McCullar and Dr. Jeff Miller of the University of Minnesota Cancer Center in accordance with the University of Minnesota Institutional Review Board on Human Subjects.
Flow cytometry. Quantitation of apoptotic events was conducted using a FACS Calibur (BD Immunocytometry Systems). […]

BLIN-3 cells [4] = assay: Loss of mitochondrial transmembrane potential (TMRE) and YO-PRO permeability in BLIN-3; format: cell-based, human; conditions: BLIN-3 removed from adherent fibroblasts, 50 μM, compared to DMSO
Procedure: Numbers in the histograms indicate the percentage of PI^- cells that underwent a loss of Δψm. Numbers in the contour plots indicate the percentage of Annexin V^+/PI^- cells. […] Numbers in the contour plots indicate the percentage of YO^- PRO^+/PI^- cells. Numbers in the histograms indicate the percentage of PI^- cells that underwent a loss of Δψm. Flow cytometry. Quantitation of apoptotic events was conducted using a FACS Calibur (BD Immunocytometry Systems). All analyses were conducted on cells with lymphoid light scatter characteristics (i.e., low to medium forward scatter and low 90° side scatter). i. Mitochondrial transmembrane potential (Δψm). The cationic lipophilic fluorescent dye tetramethylrhodamine, ethyl ester, perchlorate (TMRE) was purchased from Molecular Probes, Inc. (Eugene, Oreg.). TMRE has a high degree of membrane permeability and accumulates into mitochondria in accord with the Nernstian equation (Farkas Biophys J. 1989;56:1053-1069). Cells were washed once and re-suspended to 0.5-1.0×10^6/ml in X-VIVO 10. TMRE was added to a final concentration of 50 nM and the cells were incubated in the dark at 37° C. for 15 minutes. […] ii. YO-[…]. The green fluorescent DNA intercalant dye YO-PRO-1 (Idziorek J Immunol Methods. 1995;185:249-258) was purchased from Molecular Probes as the Vybrant Apoptosis Assay Kit #4. […]

BLIN cell lines = assay: Enhancement of apoptosis in BLIN cell lines (flow cytometry); format: cell-based, human; conditions: BLIN cell lines
Procedure: as §1
i. Mitochondrial transmembrane potential (Δψm). The cationic lipophilic fluorescent dye tetramethylrhodamine, ethyl ester, perchlorate (TMRE) was purchased from Molecular Probes, Inc. (Eugene, Oreg.). TMRE has a high degree of membrane permeability and accumulates into mitochondria in accord with the Nernstian equation (Farkas Biophys J. 1989;56:1053-1069). Cells were washed once and re-suspended to 0.5-1.0×10^6/ml in X-VIVO 10. TMRE was added to a final concentration of 50 nM and the cells were incubated in the dark at 37° C. for 15 minutes. Cells were then washed 2× in PBS, resuspended in PBS containing 2 μg/ml of propidium iodide (PI), and immediately analyzed. The protonophore […] (50 μM, CCCP, Sigma) was used as a positive control to effect loss of Δψm in 100% of cells.
ii. YO-PRO-1. The green fluorescent DNA intercalant dye YO-PRO-1 (Idziorek J Immunol Methods. 1995;185:249-258) was purchased from Molecular Probes as the Vybrant Apoptosis Assay Kit #4. Dual staining with YO-PRO and PI allows for the detection of early apoptotic cells (YO-PRO+/PI−) that have undergone initial changes in permeability to small molecules. Cells were stained according to the manufacturers recommendations.
as §2, §3

Row | Compound | Pro-apoptotic Activity (after 24 hours) (leukemia/lymphoma cells) | also measured
1 | Z-DEVD-fmk [C3i, reference compound] | − | 
2 | CN[C@@H]1C[C@H]2O[C@@](C)([C@@H]1OC)n1c3ccccc3c3c4c(c5c6ccccc6n2c5c31)C(=O)NC4 [staurosporine] |  | apoptotic response of caspase-9 deficient BLIN-4L compared with control siRNA treated cells [1]: significantly more sensitive
3 | LEED (printed: Leu-Glu-Glu-Asp) [C9i/H > E, variant of Z-LEHD-fmk, Leu-Glu-Glu-Asp] | − | 
4 | COc1cc([C@@H]2c3cc4c(cc3[C@@H](O[C@@H]3O[C@@H]5CO[C@@H](C)O[C@H]5[C@H](O)[C@H]3O)[C@H]3COC(=O)[C@H]23)OCO4)cc(OC)c1O [etoposide] |  | apoptotic response of caspase-9 deficient BLIN-4L compared with control siRNA treated cells [1]: no difference
5 | LEAD [C9i/H > A] | − | 
6 | LEHD [C91/ΔFMK] | − | 
7 | WEHD (printed: Trp-Glu-His-Asp) [C9i/L > W, variant of Z-LEHD-fmk, Trp-Glu-His-Asp] | ++++ | 
8 | Cbz-VEID-CH2F [C6i, reference compound] | − | 
9 | Cbz-VDVAD-CH2F [C2i, reference compound] | − | 
10 | Z-VAD-fmk [PCi, reference compound] | − | appearance of Annexin V+ cells (BLIN-3 cells [2]): completely blocked; percentage of total Annexin V+ cells (PI+ and PI−), mean ± SD (CD33+ myeloid cells): 18.0 ± 3.9 %; cleavage of the caspase-3/caspase-7 substrate PARP [3]: had no effect; percentage of total Annexin V+ cells (PI+ and PI−), mean ± SD (CD19+ B-cell precursors): 39.5 ± 1.8 %; loss of Δψm (TMRE) (BLIN-3 cells [4]): did not prevent loss of Δψm; enhancement of apoptosis (BLIN cell lines): did not enhance apoptosis
